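Dose response: 5 concentrations. Exposure: 48 h. Format: 96-well plates. Endpoint: linear interpolation; highest concentration if not reached. The concentration for 50% growth inhibition is given as GI50.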 Active and inactive are the calls of the source. No stated cut-off is given here; in the data, active = GI50 up to about 1.1 µM and inactive = higher.
Assays:
Experiment in all cases: NCI tumour cell line growth inhibition, 48 h
SNB-75 = tested on: SNB-75
EKVX = tested on: EKVX
COLO 205 = tested on: COLO 205
DU-145 = tested on: DU-145
HT-29 = tested on: HT-29
HCT-116 = tested on: HCT-116
RXF 393 = tested on: RXF 393
MDA-MB-435 = tested on: MDA-MB-435
MOLT-4 = tested on: MOLT-4
786-0 = tested on: 786-0
HL-60 = tested on: HL-60
NCI-H460 = tested on: NCI-H460
CCRF-CEM = tested on: CCRF-CEM
HCC 2998 = tested on: HCC 2998
NCI-H23 = tested on: NCI-H23
NCI/ADR-RES = tested on: NCI/ADR-RES
A549 = tested on: A549
MDA-N = tested on: MDA-N
IGROV-1 = tested on: IGROV-1
U-251 = tested on: U-251
SK-MEL-5 = tested on: SK-MEL-5
RPMI-8226 = tested on: RPMI-8226
UACC-62 = tested on: UACC-62
OVCAR-3 = tested on: OVCAR-3
OVCAR-8 = tested on: OVCAR-8
PC-3 = tested on: PC-3
MCF7 = tested on: MCF7
NCI-H226 = tested on: NCI-H226
Hs-578T = tested on: Hs-578T
ACHN = tested on: ACHN
CAKI-1 = tested on: CAKI-1
OVCAR-4 = tested on: OVCAR-4
K562 = tested on: K562
M14 = tested on: M14
NCI-H522 = tested on: NCI-H522
TK-10 = tested on: TK-10
UO-31 = tested on: UO-31
BT-549 = tested on: BT-549
KM12 = tested on: KM12
OVCAR-5 = tested on: OVCAR-5
SW-620 = tested on: SW-620
SF-268 = tested on: SF-268
HCT-15 = tested on: HCT-15
Malme-3M = tested on: Malme-3M
A498 = tested on: A498
LOX IMVI = tested on: LOX IMVI
SK-MEL-2 = tested on: SK-MEL-2
UACC-257 = tested on: UACC-257
SK-OV-3 = tested on: SK-OV-3
HOP-62 = tested on: HOP-62
SF-295 = tested on: SF-295
SNB-19 = tested on: SNB-19
SK-MEL-28 = tested on: SK-MEL-28
MDA-MB-231 = tested on: MDA-MB-231
HOP-92 = tested on: HOP-92
SR = tested on: SR
SF-539 = tested on: SF-539
SN12C = tested on: SN12C
T47D = tested on: T47D

Measured: GI50

CCN1CC2=C(N=c3s/c(=C\c4ccc(Cl)cc4)c(=O)n3C2c2ccc(Cl)cc2)/C(=C/c2ccc(Cl)cc2)C1 (stereo not drawn)
> 100 µM: HCT-15
inactive: SNB-75 2.37 µM | EKVX > 100 µM | COLO 205 > 100 µM | DU-145 > 100 µM | HT-29 > 100 µM | HCT-116 44.1 µM | RXF 393 2.47 µM | MDA-MB-435 > 100 µM | MOLT-4 64.6 µM | 786-0 10.4 µM | HL-60 > 100 µM | NCI-H460 > 100 µM | CCRF-CEM 73.3 µM | HCC 2998 > 100 µM | NCI-H23 63.1 µM | NCI/ADR-RES > 100 µM | A549 > 100 µM | MDA-N > 100 µM | IGROV-1 67.3 µM | U-251 20.8 µM | SK-MEL-5 > 100 µM | RPMI-8226 84.9 µM | UACC-62 32.2 µM | OVCAR-3 > 100 µM | OVCAR-8 > 100 µM | PC-3 > 100 µM | MCF7 > 100 µM | NCI-H226 37 µM | Hs-578T 25.8 µM | ACHN 58.7 µM | CAKI-1 16.4 µM | OVCAR-4 > 100 µM | K562 > 100 µM | M14 73.1 µM | NCI-H522 > 100 µM | TK-10 18.9 µM | UO-31 > 100 µM | BT-549 26.4 µM | KM12 > 100 µM | OVCAR-5 > 100 µM | SW-620 > 100 µM | SF-268 24.9 µM | Malme-3M > 100 µM | A498 24.6 µM | LOX IMVI > 100 µM | SK-MEL-2 26.6 µM | UACC-257 > 100 µM | SK-OV-3 16.8 µM | HOP-62 14.7 µM | SF-295 33 µM | SNB-19 44.4 µM | SK-MEL-28 > 100 µM | MDA-MB-231 25.6 µM

O=C1OCC=C1COC1OC(CO)C(O)C(O)C1O (stereo not drawn)
> 100 µM: HCT-15
inactive: SNB-75 > 100 µM | EKVX > 100 µM | COLO 205 > 100 µM | DU-145 > 100 µM | HT-29 > 100 µM | HCT-116 > 100 µM | RXF 393 > 100 µM | MDA-MB-435 > 100 µM | MOLT-4 > 100 µM | HOP-92 > 100 µM | 786-0 > 100 µM | HL-60 73.6 µM | NCI-H460 > 100 µM | CCRF-CEM 30.5 µM | HCC 2998 > 100 µM | NCI-H23 > 100 µM | NCI/ADR-RES > 100 µM | A549 > 100 µM | MDA-N > 100 µM | IGROV-1 > 100 µM | SR 36.2 µM | U-251 > 100 µM | SF-539 > 100 µM | SK-MEL-5 > 100 µM | RPMI-8226 > 100 µM | OVCAR-3 > 100 µM | OVCAR-8 > 100 µM | PC-3 > 100 µM | MCF7 > 100 µM | NCI-H226 > 100 µM | Hs-578T > 100 µM | ACHN > 100 µM | CAKI-1 > 100 µM | OVCAR-4 > 100 µM | K562 > 100 µM | M14 > 100 µM | NCI-H522 17.2 µM | TK-10 > 100 µM | UO-31 > 100 µM | KM12 > 100 µM | SN12C > 100 µM | T47D > 100 µM | OVCAR-5 > 100 µM | SW-620 > 100 µM | SF-268 > 100 µM | Malme-3M > 100 µM | A498 > 100 µM | LOX IMVI > 100 µM | SK-MEL-2 > 100 µM | UACC-257 > 100 µM | SK-OV-3 > 100 µM | HOP-62 > 100 µM | SF-295 > 100 µM | SNB-19 > 100 µM | SK-MEL-28 > 100 µM | MDA-MB-231 > 100 µM

COC(=O)c1ccc(NCc2cc(OC)ccc2OC)cc1
inactive: SNB-75 34.2 µM | EKVX 80 µM | COLO 205 35.6 µM | DU-145 > 100 µM | HT-29 28.8 µM | HCT-116 45 µM | MDA-MB-435 21.8 µM | MOLT-4 33.3 µM | HOP-92 42.7 µM | 786-0 > 100 µM | HL-60 26.3 µM | CCRF-CEM 42.1 µM | HCC 2998 67.6 µM | NCI-H23 65 µM | NCI/ADR-RES 30.3 µM | A549 38.7 µM | MDA-N 20.8 µM | IGROV-1 > 100 µM | SR 38 µM | U-251 74.3 µM | SF-539 68.5 µM | SK-MEL-5 31.2 µM | RPMI-8226 65.8 µM | UACC-62 44.8 µM | OVCAR-3 59.2 µM | OVCAR-8 > 100 µM | PC-3 39 µM | MCF7 26.7 µM | NCI-H226 69.8 µM | Hs-578T 92 µM | ACHN 34.5 µM | CAKI-1 33.7 µM | OVCAR-4 > 100 µM | K562 35.6 µM | M14 40.6 µM | NCI-H522 38.4 µM | TK-10 24 µM | UO-31 45.6 µM | BT-549 53.8 µM | KM12 31.1 µM | OVCAR-5 > 100 µM | SW-620 58.2 µM | SF-268 > 100 µM | Malme-3M 36.1 µM | A498 26.2 µM | LOX IMVI 24.3 µM | SK-MEL-2 54.6 µM | UACC-257 52.1 µM | SK-OV-3 57 µM | SNB-19 > 100 µM | SK-MEL-28 39.1 µM | MDA-MB-231 46.7 µM
30.6 µM: HCT-15

C=C1C2C[C@@H]3O[C@H]4C[C@H]5O[C@@]6(C[C@@H]7O[C@]8(C[C@H](C)[C@@H]9O[C@@H]%10CC(CO)O[C@@H]%10C[C@@H]9O8)C[C@H](C)[C@@H]7O6)C[C@H]5O[C@H]4[C@H](C)[C@H]3OC(=O)C[C@H]3CC[C@@H]4OC5[C@H]6O[C@]7(CC[C@H]8CC(=C)[C@H](CC[C@@H](C[C@H]1C)O2)O8)CC6O[C@@H]5[C@@H](O7)[C@H]4O3 (stereo partly drawn)
active: SNB-75 < 0.0001 µM | EKVX < 0.0001 µM | COLO 205 < 0.0001 µM | DU-145 < 0.0001 µM | HCT-116 < 0.0001 µM | RXF 393 < 0.0001 µM | MDA-MB-435 < 0.0001 µM | MOLT-4 < 0.0001 µM | HOP-92 < 0.0001 µM | 786-0 < 0.0001 µM | NCI-H460 < 0.0001 µM | CCRF-CEM < 0.0001 µM | HCC 2998 < 0.0001 µM | NCI-H23 < 0.0001 µM | NCI/ADR-RES < 0.0001 µM | A549 < 0.0001 µM | MDA-N < 0.0001 µM | IGROV-1 < 0.0001 µM | SR < 0.0001 µM | U-251 < 0.0001 µM | SK-MEL-5 < 0.0001 µM | RPMI-8226 < 0.0001 µM | UACC-62 < 0.0001 µM | OVCAR-3 < 0.0001 µM | OVCAR-8 < 0.0001 µM | PC-3 < 0.0001 µM | MCF7 < 0.0001 µM | NCI-H226 < 0.0001 µM | Hs-578T < 0.0001 µM | ACHN < 0.0001 µM | CAKI-1 < 0.0001 µM | OVCAR-4 > 0.635 µM | K562 < 0.0001 µM | M14 < 0.0001 µM | NCI-H522 < 0.0001 µM | TK-10 < 0.0001 µM | UO-31 < 0.0001 µM | BT-549 < 0.0001 µM | KM12 < 0.0001 µM | SN12C < 0.0001 µM | OVCAR-5 < 0.0001 µM | SW-620 < 0.0001 µM | SF-268 < 0.0001 µM | Malme-3M < 0.0001 µM | A498 0.000502 µM | LOX IMVI < 0.0001 µM | SK-MEL-2 < 0.0001 µM | UACC-257 < 0.0001 µM | SK-OV-3 < 0.0001 µM | HOP-62 < 0.0001 µM | SF-295 < 0.0001 µM | SNB-19 < 0.0001 µM | MDA-MB-231 < 0.0001 µM
< 0.0001 µM: HCT-15

From ChEMBL document CHEMBL1201862, “PubChem BioAssay data set” (2004)
